Here are results for 26 compounds from US11787785B2 (NOVARTIS AG, priority 2021, dated 2023).

This assay has as its target T1, WIZ protein (HiBit-WIZ fusion protein) (Homo sapiens, UniProt O95785+Q96SW2).
T1 construct: expressed in transfected cells
Nature of the assay: Quantification of WIZ protein levels in HiBit tag fusion protein assay (WIZ HiBit assay in 293T cells). The assay is classed as cell-based. Set-up: remaining activity / Dmax: dose or concentration left out as unconfirmed. The following applies: for Dmax at 25 µM: 100 − Amax; for Dmax at 25 µM / remaining activity at 25 µM: 293T cells; for remaining activity at 25 µM: DMSO-normalized, curve-fitted percentage of WIZ-HiBit remaining at 25 uM; for DC50: WIZ HiBit assay in 293T cells, 10-point, 5-fold dose response, highest concentration 25 μM, about 18 hours, read-out: WIZ AC50. In short, it runs like this:
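Luminescence after LgBit complementation quantified remaining HiBit-WIZ in lysates of single-copy stable 293T lines. Cells dosed ~18 h at 37 °C with 10-point, 5-fold dilutions (highest 25 μM); DMSO set to 100%, fitted curve gave % remaining at 25 μM (Amax).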

Setting [1] is: HEK-293T, read-out: % degradation of WIZ (100 − Amax).

T1 sequence (O95785 whole entry, the tested form may be a part): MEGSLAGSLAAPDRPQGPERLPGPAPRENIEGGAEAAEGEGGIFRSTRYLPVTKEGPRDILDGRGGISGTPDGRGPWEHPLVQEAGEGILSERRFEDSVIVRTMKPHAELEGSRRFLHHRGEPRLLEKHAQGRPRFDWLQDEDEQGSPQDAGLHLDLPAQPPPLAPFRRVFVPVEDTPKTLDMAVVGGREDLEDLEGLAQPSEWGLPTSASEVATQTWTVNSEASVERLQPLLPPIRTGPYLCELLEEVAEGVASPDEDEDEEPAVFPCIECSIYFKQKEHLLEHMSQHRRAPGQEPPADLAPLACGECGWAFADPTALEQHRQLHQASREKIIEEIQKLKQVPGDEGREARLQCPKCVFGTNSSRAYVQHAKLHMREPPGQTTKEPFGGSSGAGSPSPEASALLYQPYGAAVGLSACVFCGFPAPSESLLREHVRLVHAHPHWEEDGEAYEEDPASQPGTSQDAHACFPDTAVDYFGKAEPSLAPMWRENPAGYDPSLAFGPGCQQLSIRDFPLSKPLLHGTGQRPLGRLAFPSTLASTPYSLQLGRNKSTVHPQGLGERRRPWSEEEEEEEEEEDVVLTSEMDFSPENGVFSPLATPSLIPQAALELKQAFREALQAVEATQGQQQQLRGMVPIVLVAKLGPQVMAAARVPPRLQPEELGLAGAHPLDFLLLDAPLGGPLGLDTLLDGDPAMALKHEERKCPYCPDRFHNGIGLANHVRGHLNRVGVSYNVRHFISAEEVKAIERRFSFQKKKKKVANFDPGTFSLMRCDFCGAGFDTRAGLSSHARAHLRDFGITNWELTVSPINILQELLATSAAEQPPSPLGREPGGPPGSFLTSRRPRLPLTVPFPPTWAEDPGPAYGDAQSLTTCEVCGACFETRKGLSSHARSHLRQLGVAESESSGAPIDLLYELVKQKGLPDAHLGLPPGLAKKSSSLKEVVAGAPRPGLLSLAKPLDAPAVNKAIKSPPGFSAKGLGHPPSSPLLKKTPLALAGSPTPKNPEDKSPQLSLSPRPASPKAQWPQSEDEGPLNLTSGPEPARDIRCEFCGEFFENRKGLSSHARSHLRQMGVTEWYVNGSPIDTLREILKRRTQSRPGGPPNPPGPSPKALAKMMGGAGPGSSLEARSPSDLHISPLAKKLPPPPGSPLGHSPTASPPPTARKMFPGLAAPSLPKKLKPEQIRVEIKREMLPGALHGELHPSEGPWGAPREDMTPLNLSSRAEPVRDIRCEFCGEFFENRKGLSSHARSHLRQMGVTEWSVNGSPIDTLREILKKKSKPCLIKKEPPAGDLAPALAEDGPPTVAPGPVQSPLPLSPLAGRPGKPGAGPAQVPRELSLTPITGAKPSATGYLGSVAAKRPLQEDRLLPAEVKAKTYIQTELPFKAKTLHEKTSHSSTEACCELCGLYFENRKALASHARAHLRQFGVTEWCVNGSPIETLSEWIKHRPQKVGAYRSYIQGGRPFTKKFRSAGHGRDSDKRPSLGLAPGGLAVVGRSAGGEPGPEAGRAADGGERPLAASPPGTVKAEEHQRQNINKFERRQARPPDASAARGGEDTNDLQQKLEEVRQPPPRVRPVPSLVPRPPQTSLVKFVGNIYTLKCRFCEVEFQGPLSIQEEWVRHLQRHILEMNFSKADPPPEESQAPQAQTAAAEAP
T1 sequence (Q96SW2 whole entry, the tested form may be a part): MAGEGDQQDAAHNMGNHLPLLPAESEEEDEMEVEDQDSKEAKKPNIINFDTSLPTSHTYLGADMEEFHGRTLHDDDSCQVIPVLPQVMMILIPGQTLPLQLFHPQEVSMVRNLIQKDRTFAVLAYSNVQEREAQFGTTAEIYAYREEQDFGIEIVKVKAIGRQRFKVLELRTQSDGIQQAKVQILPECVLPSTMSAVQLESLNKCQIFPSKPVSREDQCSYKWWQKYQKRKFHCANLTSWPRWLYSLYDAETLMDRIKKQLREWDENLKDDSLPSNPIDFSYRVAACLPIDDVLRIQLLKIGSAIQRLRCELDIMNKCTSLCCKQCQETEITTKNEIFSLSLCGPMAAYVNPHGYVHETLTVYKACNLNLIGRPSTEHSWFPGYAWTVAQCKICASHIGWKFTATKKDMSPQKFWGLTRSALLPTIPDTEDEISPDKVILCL
T1 sequence (Q16531 whole entry partner, the tested form may be a part): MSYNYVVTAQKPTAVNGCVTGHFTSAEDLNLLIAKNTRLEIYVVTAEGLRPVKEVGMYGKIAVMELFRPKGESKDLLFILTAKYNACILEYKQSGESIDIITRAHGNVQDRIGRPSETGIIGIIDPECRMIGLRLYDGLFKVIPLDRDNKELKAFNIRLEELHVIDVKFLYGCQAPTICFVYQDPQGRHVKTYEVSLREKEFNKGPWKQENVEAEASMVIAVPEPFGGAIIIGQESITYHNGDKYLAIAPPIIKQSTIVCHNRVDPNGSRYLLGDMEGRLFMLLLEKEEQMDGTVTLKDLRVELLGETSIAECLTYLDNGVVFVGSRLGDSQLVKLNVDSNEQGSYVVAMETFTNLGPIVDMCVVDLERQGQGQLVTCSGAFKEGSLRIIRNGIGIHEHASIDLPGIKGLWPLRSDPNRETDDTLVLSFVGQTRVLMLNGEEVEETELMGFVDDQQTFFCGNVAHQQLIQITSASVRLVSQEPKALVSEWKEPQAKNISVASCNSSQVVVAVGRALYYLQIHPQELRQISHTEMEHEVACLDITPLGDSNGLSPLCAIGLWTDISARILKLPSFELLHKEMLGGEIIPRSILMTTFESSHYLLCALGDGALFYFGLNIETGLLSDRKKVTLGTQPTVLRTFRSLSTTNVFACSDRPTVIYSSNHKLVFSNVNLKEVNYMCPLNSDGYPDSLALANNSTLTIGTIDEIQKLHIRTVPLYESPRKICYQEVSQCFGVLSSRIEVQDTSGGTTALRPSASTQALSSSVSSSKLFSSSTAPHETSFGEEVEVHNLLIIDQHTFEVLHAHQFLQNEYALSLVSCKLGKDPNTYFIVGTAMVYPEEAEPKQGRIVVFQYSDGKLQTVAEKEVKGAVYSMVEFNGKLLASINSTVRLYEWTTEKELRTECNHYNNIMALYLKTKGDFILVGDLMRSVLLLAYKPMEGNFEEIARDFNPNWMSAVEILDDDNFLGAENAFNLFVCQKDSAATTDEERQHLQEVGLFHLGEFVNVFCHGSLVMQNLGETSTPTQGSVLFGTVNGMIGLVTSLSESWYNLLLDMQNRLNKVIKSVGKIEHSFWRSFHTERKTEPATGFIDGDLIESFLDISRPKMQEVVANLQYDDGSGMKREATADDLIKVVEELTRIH

Consider `Cc1ccc(F)cc1CN1CCC(Cc2ccn3ncc(N4CCC(=O)NC4=O)c3c2)CC1` [Example 58, 1-(5-((1-(5-fluoro-2-methylbenzyl)piperidin-4-yl)methyl)pyrazolo[1,5-a]pyridin-3-yl)dihydropyrimidine-2,4(1H,3H)-dione], for which the DC50 came out at 33 nM. The Dmax at 25 µM under setting [1] came out at 63%. For the setting “HEK-293T, read-out: WIZ Amax”, the remaining activity at 25 µM worked out at 37%.

In the case of `O=C1CCN(c2cnn3ccc(CC4CCN(Cc5cccnc5)C4)cc23)C(=O)N1` (stereo not drawn) [Example 129], the DC50 worked out at 800 nM. Further, the Dmax at 25 µM under setting [1] was found to be 35%. Further, the remaining activity at 25 µM (HEK-293T, read-out: WIZ Amax) was 65%.

For `CC(C)(C1CCOCC1)N1CCC(Cc2ccn3ncc(N4CCC(=O)NC4=O)c3c2)CC1` [Example 136, 1-(5-((1-(2-(tetrahydro-2H-pyran-4-yl)propan-2-yl)piperidin-4-yl)methyl)pyrazolo[1,5-a]pyridin-3-yl)dihydropyrimidine-2,4(1H,3H)-dione], the DC50 is 33 nM. The Dmax at 25 µM under setting [1] is 86%. Further, the remaining activity at 25 µM (HEK-293T, read-out: WIZ Amax) is 14%.

Take `O=C1CCN(c2cnn3ccc(CC4CCN(CC(F)(F)C5CCCCC5)CC4)cc23)C(=O)N1` [Example 112, 1-(5-((1-(2-cyclohexyl-2,2-difluoroethyl)piperidin-4-yl)methyl)pyrazolo[1,5-a]pyridin-3-yl)dihydropyrimidine-2,4(1H,3H)-dione]: the DC50 is 16 nM. In addition, the Dmax at 25 µM under setting [1] was found to be 66%. Moreover, the remaining activity at 25 µM (HEK-293T, read-out: WIZ Amax) was determined as 34%.

Consider `O=C1CCN(c2cnn3ccc(CC4CCN(Cc5ccc(C(F)(F)F)cc5)CC4)cc23)C(=O)N1` [Example 57, 1-(5-((1-(4-(trifluoromethyl)benzyl)piperidin-4-yl)methyl)pyrazolo[1,5-a]pyridin-3-yl)dihydropyrimidine-2,4(1H,3H)-dione], for which the DC50 was 107 nM. Further, under setting [1], the Dmax at 25 µM is 63%. For the same compound, the remaining activity at 25 µM (HEK-293T, read-out: WIZ Amax) turned out to be 37%.

Take `C[C@@H]1C[C@@H](Cc2ccn3ncc(N4CCC(=O)NC4=O)c3c2)CCN1CC1CCC(F)(F)CC1` [Example 155]: the DC50 came to 9 nM. In addition, the Dmax at 25 µM under setting [1] was 85%. Besides, the remaining activity at 25 µM (HEK-293T, read-out: WIZ Amax) is 15%.

`O=C1CCN(c2cnn3ccc(CC4CCN(S(=O)(=O)c5ccccc5)CC4)cc23)C(=O)N1` [Example 91]: the DC50 came out at 150 nM. In addition, the Dmax at 25 µM under setting [1] is 74%. Moreover, the remaining activity at 25 µM (HEK-293T, read-out: WIZ Amax) was 26%.

Consider `O=C1CCN(c2cnn3ccc(CC4CCN(Cc5cccc(C(F)(F)F)c5)CC4)cc23)C(=O)N1` [Example 25, 1-(5-((1-(3-(trifluoromethyl)benzyl)piperidin-4-yl)methyl)pyrazolo[1,5-a]pyridin-3-yl)dihydropyrimidine-2,4(1H,3H)-dione], for which the DC50 was determined as 40 nM. For the same compound, the Dmax at 25 µM under setting [1] amounted to 76%. Besides, the remaining activity at 25 µM (HEK-293T, read-out: WIZ Amax) worked out at 24%.

On to `O=C1CCN(c2cnn3ccc(CC4CCN(Cc5cccc(F)c5)CC4)cc23)C(=O)N1` [Example 22, 1-(5-((1-(3-fluorobenzyl)piperidin-4-yl)methyl)pyrazolo[1,5-a]pyridin-3-yl)dihydropyrimidine-2,4(1H,3H)-dione], for which the DC50 came out at 71 nM. For the same compound, the Dmax at 25 µM under setting [1] amounted to 77%. Moreover, the remaining activity at 25 µM (HEK-293T, read-out: WIZ Amax) is 23%.

Take `CC(C)N1CCC(Cc2ccn3ncc(N4CCC(=O)NC4=O)c3c2)CC1` [Example 37, 1-(5-((1-isopropylpiperidin-4-yl)methyl)pyrazolo[1,5-a]pyridin-3-yl)dihydropyrimidine-2,4(1H,3H)-dione]: the DC50 amounted to 446 nM. The Dmax at 25 µM under setting [1] came to 72%. Also, for the setting “HEK-293T, read-out: WIZ Amax”, the remaining activity at 25 µM amounted to 28%.

Consider `C[C@H]1CN(Cc2ccn3ncc(N4CCC(=O)NC4=O)c3c2)CCN1CC1(C)CCC1` [Example 322, (S)-1-(5-((3-methyl-4-((1-methylcyclobutyl)methyl)piperazin-1-yl)methyl)pyrazolo[1,5-a]pyridin-3-yl)dihydropyrimidine-2,4(1H,3H)-dione], for which the DC50 was found to be 31 nM. Under setting [1], the Dmax at 25 µM was found to be 86%. For the setting “HEK-293T, read-out: WIZ Amax”, the remaining activity at 25 µM is 14%.

Regarding `CC(C)CN1CC[C@@H](Cc2ccn3ncc(N4CCC(=O)NC4=O)c3c2)C[C@H]1C` [Example 77], the DC50 worked out at 77 nM. The Dmax at 25 µM under setting [1] was 68%. The remaining activity at 25 µM (HEK-293T, read-out: WIZ Amax) stood at 32%.

As to `COC(=O)N1CCC(Cc2ccn3ncc(N4CCC(=O)NC4=O)c3c2)CC1` [Example 93], the DC50 was determined as 6520 nM. For the same compound, the Dmax at 25 µM under setting [1] turned out to be 62%. Moreover, the remaining activity at 25 µM (HEK-293T, read-out: WIZ Amax) amounted to 38%.

In the case of `CC(C)(F)CN1CCC(Cc2ccn3ncc(N4CCC(=O)NC4=O)c3c2)CC1` [Example 39, 1-(5-((1-(2-fluoro-2-methylpropyl)piperidin-4-yl)methyl)pyrazolo[1,5-a]pyridin-3-yl)dihydropyrimidine-2,4(1H,3H)-dione], the DC50 was 83 nM. The Dmax at 25 µM under setting [1] is 71%. Where the note is “HEK-293T, read-out: WIZ Amax”, the remaining activity at 25 µM is 29%.

For the compound `O=C1CCN(c2cnn3ccc(CC4CCN(Cc5ccccc5Cl)CC4)cc23)C(=O)N1` [Example 59, 1-(5-((1-(2-chlorobenzyl)piperidin-4-yl)methyl)pyrazolo[1,5-a]pyridin-3-yl)dihydropyrimidine-2,4(1H,3H)-dione], the DC50 amounted to 98 nM. Also, the Dmax at 25 µM under setting [1] was determined as 58%. Moreover, under “HEK-293T, read-out: WIZ Amax”, the remaining activity at 25 µM was found to be 42%.

On to `C[C@@H]1CN(Cc2ccn3ncc(N4CCC(=O)NC4=O)c3c2)CCN1CC1CCOCC1` [Example 217], for which the DC50 is 92 nM. For the same compound, under setting [1], the Dmax at 25 µM is 75%. In addition, the remaining activity at 25 µM (HEK-293T, read-out: WIZ Amax) was determined as 25%.

Take `O=C1CCN(c2cnn3ccc(CC4CCN(C(=O)C5CCCCC5)CC4)cc23)C(=O)N1` [Example 99]: the DC50 was found to be 1830 nM. The Dmax at 25 µM under setting [1] is 52%. Moreover, for the setting “HEK-293T, read-out: WIZ Amax”, the remaining activity at 25 µM was determined as 48%.

Consider `O=C1CCN(c2cnn3ccc(CC4CCN(S(=O)(=O)C5CCCCC5)CC4)cc23)C(=O)N1` [Example 81], for which the DC50 turned out to be 15 nM. The Dmax at 25 µM under setting [1] was determined as 92%. For the same compound, the remaining activity at 25 µM (HEK-293T, read-out: WIZ Amax) was found to be 8%.

Regarding `C[C@H]1C[C@H](Cc2ccn3ncc(N4CCC(=O)NC4=O)c3c2)CCN1CC1CC(F)(F)C1` [Example 152, 1-(5-(((2S,4R)-1-((3,3-difluorocyclobutyl)methyl)-2-methylpiperidin-4-yl)methyl)pyrazolo[1,5-a]pyridin-3-yl)dihydropyrimidine-2,4(1H,3H)-dione], the DC50 turned out to be 910 nM. Under setting [1], the Dmax at 25 µM was 81%. Where the note is “HEK-293T, read-out: WIZ Amax”, the remaining activity at 25 µM amounted to 19%.

With `O=C1CCN(c2cnn3ccc(CN4CCCN(CC5CCCCC5)CC4)cc23)C(=O)N1` [Example 249, 1-(5-((4-(cyclohexylmethyl)-1,4-diazepan-1-yl)methyl)pyrazolo[1,5-a]pyridin-3-yl)dihydropyrimidine-2,4(1H,3H)-dione], the DC50 amounted to 300 nM. The Dmax at 25 µM under setting [1] amounted to 41%. Also, for the setting “HEK-293T, read-out: WIZ Amax”, the remaining activity at 25 µM is 59%.

Regarding `CO[C@H]1CC[C@H](CN2CCC(Cc3ccn4ncc(N5CCC(=O)NC5=O)c4c3)CC2)CC1` [Example 64, 1-(5-((1-(((1r,4r)-4-methoxycyclohexyl)methyl)piperidin-4-yl)methyl)pyrazolo[1,5-a]pyridin-3-yl)dihydropyrimidine-2,4(1H,3H)-dione], the DC50 was 43 nM. Further, the Dmax at 25 µM under setting [1] worked out at 94%. Further, the remaining activity at 25 µM (HEK-293T, read-out: WIZ Amax) was found to be 6%.

Regarding `O=C1CCN(c2cnn3ccc(CN4CCN5[C@@H](CCS5(=O)=O)C4)cc23)C(=O)N1` [Example 315, (S)-1-(5-((1,1-dioxidohexahydro-5H-isothiazolo[2,3-a]pyrazin-5-yl)methyl)pyrazolo[1,5-a]pyridin-3-yl)dihydropyrimidine-2,4(1H,3H)-dione], the DC50 worked out at 1020 nM. Also, under setting [1], the Dmax at 25 µM turned out to be 53%. The remaining activity at 25 µM (HEK-293T, read-out: WIZ Amax) is 47%.

Turning to `C[C@@H]1CN(Cc2ccn3ncc(N4CCC(=O)NC4=O)c3c2)CCN1Cc1cccnc1` [Example 215], the DC50 is 2620 nM. Further, the Dmax at 25 µM under setting [1] was determined as 19%. Moreover, the remaining activity at 25 µM (HEK-293T, read-out: WIZ Amax) was 81%.

As for `C[C@H]1C[C@H](Cc2ccn3ncc(N4CCC(=O)NC4=O)c3c2)CCN1C[C@H]1CCC(F)(F)C1` [Example 307, 1-(5-(((2S,4R)-1-(((S)-3,3-difluorocyclopentyl)methyl)-2-methylpiperidin-4-yl)methyl)pyrazolo[1,5-a]pyridin-3-yl)dihydropyrimidine-2,4(1H,3H)-dione], the DC50 amounted to 6 nM. In addition, under setting [1], the Dmax at 25 µM was 84%. Also, for the setting “HEK-293T, read-out: WIZ Amax”, the remaining activity at 25 µM turned out to be 16%.

With `O=C1CCN(c2cnn3ccc(CC4CCN(S(=O)(=O)CC5CCCCC5)CC4)cc23)C(=O)N1` [Example 80, 1-(5-((1-((cyclohexylmethyl)sulfonyl)piperidin-4-yl)methyl)pyrazolo[1,5-a]pyridin-3-yl)dihydropyrimidine-2,4(1H,3H)-dione], the DC50 came out at 49 nM. The Dmax under setting [1] was determined as 88%. For the same compound, the remaining activity (HEK-293T, read-out: WIZ Amax) was determined as 12%.

For `O=C1CCN(c2cnn3ccc(CN4CCN(CC5CCCCC5)C(=O)C4)cc23)C(=O)N1` [Example 242, 1-(5-((4-(cyclohexylmethyl)-3-oxopiperazin-1-yl)methyl)pyrazolo[1,5-a]pyridin-3-yl)dihydropyrimidine-2,4(1H,3H)-dione], the DC50 was determined as 1600 nM. Further, under setting [1], the Dmax at 25 µM came to 7%. The remaining activity at 25 µM (HEK-293T, read-out: WIZ Amax) amounted to 93%.
